Key:
BRG1 = target: T1, BRG1 (Homo sapiens, UniProt P51532); assay: Immunofluorescence assay for BRG1 degradation in SW1573 cells; type: cell-based; settings: 20 hours incubation; for DC50: immunofluorescence mean nuclear signal, read-out: BRG1 IF Degradation IC50; for Dmax: SW1573, 20 h, normalized to a known degrader control, read-out: BRG1 IF Degradation Sinf (%)
T1 construct: either BRM primary antibody (Cell signaling Cat #11966) or BRG primary antibody (Abcam, ab 110641); endogenous in cells; host or cells: SW1573
T1 sequence (P51532 whole entry): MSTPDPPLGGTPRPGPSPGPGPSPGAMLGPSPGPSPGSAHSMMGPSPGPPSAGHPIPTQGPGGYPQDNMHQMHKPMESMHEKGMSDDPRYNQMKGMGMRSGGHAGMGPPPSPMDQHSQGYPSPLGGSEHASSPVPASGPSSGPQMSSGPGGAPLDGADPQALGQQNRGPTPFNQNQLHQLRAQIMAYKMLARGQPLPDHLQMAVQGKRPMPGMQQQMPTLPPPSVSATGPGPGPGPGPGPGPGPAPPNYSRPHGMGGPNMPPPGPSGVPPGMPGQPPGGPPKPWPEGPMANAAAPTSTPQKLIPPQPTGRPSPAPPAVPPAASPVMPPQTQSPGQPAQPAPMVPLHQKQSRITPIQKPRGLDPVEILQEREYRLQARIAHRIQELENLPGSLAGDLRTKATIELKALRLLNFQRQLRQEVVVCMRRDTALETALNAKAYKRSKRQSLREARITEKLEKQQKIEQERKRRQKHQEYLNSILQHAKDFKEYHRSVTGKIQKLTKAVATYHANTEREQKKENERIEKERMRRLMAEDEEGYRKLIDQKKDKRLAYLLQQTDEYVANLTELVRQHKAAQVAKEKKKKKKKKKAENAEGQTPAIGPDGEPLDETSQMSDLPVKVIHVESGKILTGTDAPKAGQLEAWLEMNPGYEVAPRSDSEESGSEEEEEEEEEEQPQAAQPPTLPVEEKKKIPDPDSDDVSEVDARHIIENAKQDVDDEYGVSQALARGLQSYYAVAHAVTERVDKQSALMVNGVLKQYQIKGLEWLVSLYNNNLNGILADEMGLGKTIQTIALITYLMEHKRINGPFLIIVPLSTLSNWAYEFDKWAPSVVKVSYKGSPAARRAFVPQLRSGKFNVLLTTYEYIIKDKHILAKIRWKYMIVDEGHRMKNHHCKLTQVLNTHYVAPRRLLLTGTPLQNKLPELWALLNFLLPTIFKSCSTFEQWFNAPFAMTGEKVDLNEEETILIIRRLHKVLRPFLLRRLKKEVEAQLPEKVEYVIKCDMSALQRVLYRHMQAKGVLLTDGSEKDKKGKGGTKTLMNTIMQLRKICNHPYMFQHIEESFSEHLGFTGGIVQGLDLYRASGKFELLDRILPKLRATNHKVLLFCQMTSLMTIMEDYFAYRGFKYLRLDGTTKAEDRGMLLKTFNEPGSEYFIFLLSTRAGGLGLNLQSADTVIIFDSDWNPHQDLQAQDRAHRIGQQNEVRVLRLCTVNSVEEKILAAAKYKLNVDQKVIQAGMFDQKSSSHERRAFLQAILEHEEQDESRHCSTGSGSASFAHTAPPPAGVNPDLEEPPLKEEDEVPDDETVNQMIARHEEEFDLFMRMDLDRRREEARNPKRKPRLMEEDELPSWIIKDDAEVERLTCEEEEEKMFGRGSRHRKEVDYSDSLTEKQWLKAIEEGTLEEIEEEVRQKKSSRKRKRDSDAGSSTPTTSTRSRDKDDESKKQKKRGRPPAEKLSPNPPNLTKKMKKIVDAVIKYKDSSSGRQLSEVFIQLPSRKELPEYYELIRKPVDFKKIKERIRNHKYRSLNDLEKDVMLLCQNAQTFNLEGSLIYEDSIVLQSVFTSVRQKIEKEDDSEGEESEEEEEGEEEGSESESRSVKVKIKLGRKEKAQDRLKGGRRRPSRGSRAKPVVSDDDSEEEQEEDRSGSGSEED
Experimental: (§1) Example B-2: Immunofluorescence Assay for BRM and BRG1 Degraders
(§2) SW1573 cells were seeded at 3000 cells/well in 384 well plates. The next day, compounds were added using an Echo dispenser. After 20 hours of incubation with compound, cells were fixed with 4% formaldehyde then permeabilized with 0.2% Triton X-100 and blocked with 10% FCS. Fixed and permeabilized cells were treated overnight at 4° C. with either BRM primary antibody (Cell signaling Cat #11966) or BRG primary antibody (Abcam, ab 110641). Finally, cells were treated with fluorescently labeled secondary antibodies for 1 hr (Donkey anti-Rabbit IgG AF488, Life Technologies, A21206) and Hoechst nuclear stain (#H3569) was added for 30 minutes. Cells were washed with PBS in between each step and before imaging on an Opera Phenix microscope (Perkin Elmer). Harmony software (Perking Elmer) was used to quantify the mean nuclear signaling intensity of BRM or BRG signaling per cell in each well. Dose responses were determined from the concentration dependent response of mean nuclear signal intensity with data normalized to a known degrader control. Dose response curves were fit to a floating maximum to allow for calculation of the Dmax.
(§3) Note that, in Table 5, the “Compound Number” corresponds to that used in Table 1. In Table 5, for BRM and BRG1 IF degradation IC50 (μM): A indicates <0.010 μM, B indicates 0.010-0.10 μM, and C indicates >0.10 μM; and for BRM and BRG1 IF degradation Sinf % D indicates 0-−30%, E indicates −30%-−70%, F indicates −71%-−120% and ND indicates the value was not determined.

BRM = BRM (Homo sapiens, UniProt P51531); assay: Immunofluorescence assay for BRM degradation in SW1573 cells; type: cell-based; parameters: treated overnight at 4° C. with either BRM primary antibody (Cell signaling Cat #11966) or BRG primary antibody; endogenous in cells; host or cells: SW1573; settings: 20 hours incubation; for DC50: immunofluorescence mean nuclear signal, read-out: BRM IF Degradation IC50; for BRM IF Degradation Sinf (%): normalized to a known degrader control
BRM, sequence (P51531 whole entry): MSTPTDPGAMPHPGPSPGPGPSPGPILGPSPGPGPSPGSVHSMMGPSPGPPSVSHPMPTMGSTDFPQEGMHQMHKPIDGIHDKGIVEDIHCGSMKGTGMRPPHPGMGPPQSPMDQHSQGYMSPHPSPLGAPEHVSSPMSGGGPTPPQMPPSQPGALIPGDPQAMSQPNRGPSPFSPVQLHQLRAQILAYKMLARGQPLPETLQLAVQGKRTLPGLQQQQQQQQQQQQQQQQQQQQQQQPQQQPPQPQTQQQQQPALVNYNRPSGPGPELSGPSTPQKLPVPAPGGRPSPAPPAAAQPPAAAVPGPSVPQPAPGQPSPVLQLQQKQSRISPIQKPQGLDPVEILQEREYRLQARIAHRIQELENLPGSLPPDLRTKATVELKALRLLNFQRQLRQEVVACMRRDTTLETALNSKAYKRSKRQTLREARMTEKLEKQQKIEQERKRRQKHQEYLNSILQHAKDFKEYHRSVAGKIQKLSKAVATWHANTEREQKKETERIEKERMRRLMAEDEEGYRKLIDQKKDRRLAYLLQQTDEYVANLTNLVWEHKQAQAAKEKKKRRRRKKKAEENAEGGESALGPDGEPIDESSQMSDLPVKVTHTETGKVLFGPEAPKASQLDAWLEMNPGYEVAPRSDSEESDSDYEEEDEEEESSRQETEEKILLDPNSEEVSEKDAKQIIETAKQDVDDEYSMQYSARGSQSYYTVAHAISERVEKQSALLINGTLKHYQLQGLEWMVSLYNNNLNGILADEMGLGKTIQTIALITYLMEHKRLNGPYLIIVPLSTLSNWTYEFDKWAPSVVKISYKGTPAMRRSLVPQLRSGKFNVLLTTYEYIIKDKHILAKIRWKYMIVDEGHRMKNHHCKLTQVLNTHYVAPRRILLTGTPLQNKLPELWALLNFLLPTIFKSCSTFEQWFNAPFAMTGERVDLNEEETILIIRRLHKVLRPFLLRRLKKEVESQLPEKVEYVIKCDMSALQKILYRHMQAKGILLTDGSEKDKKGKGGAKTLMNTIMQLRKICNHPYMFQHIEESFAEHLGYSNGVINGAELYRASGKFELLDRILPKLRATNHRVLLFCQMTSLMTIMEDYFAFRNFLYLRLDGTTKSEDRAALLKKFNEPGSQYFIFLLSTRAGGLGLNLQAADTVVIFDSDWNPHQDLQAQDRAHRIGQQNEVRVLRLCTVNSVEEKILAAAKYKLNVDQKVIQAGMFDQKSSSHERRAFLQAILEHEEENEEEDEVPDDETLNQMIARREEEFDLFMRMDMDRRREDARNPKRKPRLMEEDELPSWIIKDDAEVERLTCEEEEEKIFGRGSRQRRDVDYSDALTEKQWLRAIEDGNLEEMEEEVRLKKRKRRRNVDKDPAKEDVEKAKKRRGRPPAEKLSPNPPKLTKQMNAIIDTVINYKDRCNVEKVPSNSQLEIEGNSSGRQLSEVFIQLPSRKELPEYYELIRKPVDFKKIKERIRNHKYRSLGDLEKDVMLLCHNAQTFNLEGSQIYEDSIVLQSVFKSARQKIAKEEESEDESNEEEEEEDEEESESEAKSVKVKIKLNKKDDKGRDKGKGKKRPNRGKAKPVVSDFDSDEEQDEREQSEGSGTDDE
Experimental: as §1, §2, §3

Row | Structure (SMILES) | DC50 (BRG1) | Dmax (BRG1) | DC50 (BRM) | BRM IF Degradation Sinf (%) (BRM)
1 | Nc1nnc(-c2ccccc2O)cc1N1CC2CCC(C1)N2c1ccnc(C#CCN2CC3CCOCC3C2)c1 (centres unmarked) [Compound 92, 2-[5-[8-[2-[3-(3,3a,4,6,7,7a-hexahydro-1H-pyrano[3,4-c]pyrrol-2-yl)prop-1-ynyl]-4-pyridyl]-3,8-diazabicyclo[3.2.1]octan-3-yl]-6-amino-pyridazin-3-yl]phenol] | < 10 nM | 30 to 70% | < 10 nM | F (F indicates −71%-−120%)
2 | CC1CCCN(CC#Cc2cc(N3C4CCC3CN(c3cc(-c5ccccc5O)nnc3N)C4)ccn2)CC1C (centres unmarked) [Compound 195, 2-[6-amino-5-[8-[2-[3-(3,4-dimethylazepan-1-yl)prop-1-ynyl]-4-pyridyl]-3,8-diazabicyclo[3.2.1]octan-3-yl]pyridazin-3-yl]phenol] | < 10 nM | 30 to 70% | < 10 nM | F (F indicates −71%-−120%)
3 | Nc1nnc(-c2ccccc2O)cc1N1CC2CCC(C1)N2c1ccnc(C#CCN2C3CCCC2COC3)c1 [Compound 111, 2-[6-amino-5-[8-[2-[3-(3-oxa-9-azabicyclo[3.3.1]nonan-9-yl)prop-1-ynyl]-4-pyridyl]-3,8-diazabicyclo[3.2.1]octan-3-yl]pyridazin-3-yl]phenol] | < 10 nM | 0 to 30% | < 10 nM | E (E indicates −30%-−70%)
4 | CC1COCCN1CC#Cc1cc(N2C3CCC2CN(c2cc(-c4ccccc4O)nnc2N)C3)ccn1 (centres unmarked) [Compound 57, 2-[6-amino-5-[8-[2-[3-(3-methylmorpholin-4-yl)prop-1-ynyl]-4-pyridyl]-3,8-diazabicyclo[3.2.1]octan-3-yl]pyridazin-3-yl]phenol] | > 100 nM |  | 10 to 100 nM | E (E indicates −30%-−70%)
5 | CO[C@H]1CCN(CC#Cc2cc(N3C4CCC3CN(c3cc(-c5ccccc5O)nnc3N)C4)ccn2)C1 [Compound 128, 2-[6-amino-5-[8-[2-[3-[(3S)-3-methoxypyrrolidin-1-yl]prop-1-ynyl]-4-pyridyl]-3,8-diazabicyclo[3.2.1]octan-3-yl]pyridazin-3-yl]phenol] | < 10 nM | 30 to 70% | 10 to 100 nM | F (F indicates −71%-−120%)
6 | Nc1nnc(-c2ccccc2O)cc1N1CC2CCC(C1)N2c1ccnc(C#CCN2CC(C3CC3)C2)c1 [Compound 150, 2-[6-amino-5-[8-[2-[3-(3-cyclopropylazetidin-1-yl)prop-1-ynyl]-4-pyridyl]-3,8-diazabicyclo[3.2.1]octan-3-yl]pyridazin-3-yl]phenol] | < 10 nM | 30 to 70% | < 10 nM | F (F indicates −71%-−120%)
7 | Nc1nnc(-c2ccccc2O)cc1N1CC2CCC(C1)N2c1ccnc(C#CCN2CCOC(F)(F)C2)c1 [Compound 112, 2-[6-amino-5-[8-[2-[3-(2,2-difluoromorpholin-4-yl)prop-1-ynyl]-4-pyridyl]-3,8-diazabicyclo[3.2.1]octan-3-yl]pyridazin-3-yl]phenol] | 10 to 100 nM | 0 to 30% | < 10 nM | E (E indicates −30%-−70%)
8 | CC1CCCN(CC#Cc2cc(N3C4CCC3CN(c3cc(-c5ccccc5O)nnc3N)C4)ccn2)CC1 (centres unmarked) [Compound 200, 2-[6-amino-5-[8-[2-[3-(4-methylazepan-1-yl)prop-1-ynyl]-4-pyridyl]-3,8-diazabicyclo[3.2.1]octan-3-yl]pyridazin-3-yl]phenol] | < 10 nM | 71 to 120% | < 10 nM | F (F indicates −71%-−120%)
9 | CC[C@H]1COCCN1CC#Cc1cc(N2C3CCC2CN(c2cc(-c4ccccc4O)nnc2N)C3)ccn1 [Compound 64, 2-[6-amino-5-[8-[2-[3-[(3S)-3-ethylmorpholin-4-yl]prop-1-ynyl]-4-pyridyl]-3,8-diazabicyclo[3.2.1]octan-3-yl]pyridazin-3-yl]phenol] | 10 to 100 nM | 0 to 30% | 10 to 100 nM | E (E indicates −30%-−70%)
10 | CC1CCN(CC#Cc2cc(N3C4CCC3CN(c3cc(-c5ccccc5O)nnc3N)C4)ccn2)CCC1(C)O (centres unmarked) [Compound 239, 1-[3-[4-[3-[3-amino-6-(2-hydroxyphenyl)pyridazin-4-yl]-3,8-diazabicyclo[3.2.1]octan-8-yl]-2-pyridyl]prop-2-ynyl]-4,5-dimethyl-azepan-4-ol] | < 10 nM | 30 to 70% | < 10 nM | E (E indicates −30%-−70%)
11 | Nc1nnc(-c2ccccc2O)cc1N1CC2(CN(c3ccnc(C#CCN4CCCCCC4)c3)C2)C1 [Compound 251, 2-[6-amino-5-[6-[2-[3-(azepan-1-yl)prop-1-ynyl]-4-pyridyl]-2,6-diazaspiro[3.3]heptan-2-yl]pyridazin-3-yl]phenol] | 10 to 100 nM | 30 to 70% | < 10 nM | E (E indicates −30%-−70%)
12 | Nc1nnc(-c2ccccc2O)cc1N1CC2CCC(C1)N2c1ccnc(C#CCN2CCCOCC23CC3)c1 [Compound 110, 2-[6-amino-5-[8-[2-[3-(8-oxa-4-azaspiro[2.6]nonan-4-yl)prop-1-ynyl]-4-pyridyl]-3,8-diazabicyclo[3.2.1]octan-3-yl]pyridazin-3-yl]phenol] | > 100 nM |  | < 10 nM | E (E indicates −30%-−70%)
13 | Nc1nnc(-c2ccccc2O)cc1N1CC2CCC(C1)N2c1ccnc(C#CCN2CCc3nccn3CC2)c1 [Compound 203, 2-[6-amino-5-[8-[2-[3-(5,6,8,9-tetrahydroimidazo[l,2-d][1,4]diazepin-7-yl)prop-1-ynyl]-4-pyridyl]-3,8-diazabicyclo[3.2.1]octan-3-yl]pyridazin-3-yl]phenol] | > 100 nM |  | 10 to 100 nM | E (E indicates −30%-−70%)
14 | Nc1nnc(-c2ccccc2O)cc1N1CC2CCC(C1)N2c1ccnc(C#CCN2CCC3(CC2)CC3)c1 [Compound 136, 2-(5-(8-(2-(3-(6-azaspiro[2.5]octan-6-yl)prop-1-yn-1-yl)pyridin-4-yl)-3,8-diazabicyclo[3.2.1]octan-3-yl)-6-aminopyridazin-3-yl)phenol] | < 10 nM | 30 to 70% | < 10 nM | E (E indicates −30%-−70%)
15 | Nc1nnc(-c2ccccc2O)cc1N1CC2CCC(C1)N2c1ccnc(C#CCCN2CCCCC2)c1 [Compound 182, 2-[6-amino-5-[8-[2-[4-(1-piperidyl)but-1-ynyl]-4-pyridyl]-3,8-diazabicyclo[3.2.1]octan-3-yl]pyridazin-3-yl]phenol] |  |  | > 100 nM | F (F indicates −71%-−120%)
16 | Nc1nnc(-c2ccccc2O)cc1N1CC2CCC(C1)N2c1ccnc(C#CCN2CC3C4CCC(C4)C32)c1 (centres unmarked) [Compound 220, 2-[6-amino-5-[8-[2-[3-(3-azatricyclo[4.2.1.02,5]nonan-3-yl)prop-1-ynyl]-4-pyridyl]-3,8-diazabicyclo[3.2.1]octan-3-yl]pyridazin-3-yl]phenol] |  |  | > 100 nM | E (E indicates −30%-−70%)
17 | CC1CCN(CC#Cc2cc(N3C4CCC3CN(c3cc(-c5ccccc5O)nnc3N)C4)ccn2)CCC1=O (centres unmarked) [Compound 198, 1-[3-[4-[3-[3-amino-6-(2-hydroxyphenyl)pyridazin-4-yl]-3,8-diazabicyclo[3.2.1]octan-8-yl]-2-pyridyl]prop-2-ynyl]-5-methyl-azepan-4-one] |  |  | < 10 nM | E (E indicates −30%-−70%)
18 | CC1(C)CC(O)CCN(CC#Cc2cc(N3C4CCC3CN(c3cc(-c5ccccc5O)nnc3N)C4)ccn2)C1 (centres unmarked) [Compound 213, 1-[3-[4-[3-[3-amino-6-(2-hydroxyphenyl)pyridazin-4-yl]-3,8-diazabicyclo[3.2.1]octan-8-yl]-dimethyl-azepan-4-ol 2-pyridyl]prop-2-ynyl]-6,6-] |  |  | 10 to 100 nM | E (E indicates −30%-−70%)
19 | Nc1nnc(-c2ccccc2O)cc1N1CC2CCC(C1)N2c1ccnc(/C=C/CN2CCCCCC2)c1 [Compound 248, (E)-2-(6-amino-5-(8-(2-(3-(azepan-1-yl)prop-1-en-1-yl)pyridin-4-yl)-3,8-diazabicyclo[3.2.1]octan-3-yl)pyridazin-3-yl)phenol] |  |  | < 10 nM | E (E indicates −30%-−70%)
20 | Nc1nnc(-c2ccccc2O)cc1N1CC2CCC(C1)N2c1ccnc(C#CCN2CCCN(c3ccncc3)CC2)c1 [Compound 204, 2-[6-amino-5-[8-[2-[3-[4-(4-pyridyl)-1,4-diazepan-1-yl]prop-1-ynyl]-4-pyridyl]-3,8-diazabicyclo[3.2.1]octan-3-yl]pyridazin-3-yl]phenol] |  |  | 10 to 100 nM | E (E indicates −30%-−70%)
